Source: paper PMC11174103 (Molecules, 2024)
“And” between values parts separate entries of the source, which are not always exact repeats. Equal entries are not always repeated. Where two headings read alike, the source gives them in different places.

What was measured:
hMAO-B = target: T1, hMAO-B (Homo sapiens, UniProt P27338); assay: In vitro MAO-B enzyme inhibitory activity (recombinant human enzyme, benzylamine substrate); format: biochemical; conditions: for IC50: recombinant human MAO-B, mean ± SD of 3 independent experiments in triplicate; for SI: SI = IC50 (hMAO-A)/IC50 (hMAO-B) ratio
T1 construct: purchased Sigma-Aldrich
T1 sequence (P27338 1-520): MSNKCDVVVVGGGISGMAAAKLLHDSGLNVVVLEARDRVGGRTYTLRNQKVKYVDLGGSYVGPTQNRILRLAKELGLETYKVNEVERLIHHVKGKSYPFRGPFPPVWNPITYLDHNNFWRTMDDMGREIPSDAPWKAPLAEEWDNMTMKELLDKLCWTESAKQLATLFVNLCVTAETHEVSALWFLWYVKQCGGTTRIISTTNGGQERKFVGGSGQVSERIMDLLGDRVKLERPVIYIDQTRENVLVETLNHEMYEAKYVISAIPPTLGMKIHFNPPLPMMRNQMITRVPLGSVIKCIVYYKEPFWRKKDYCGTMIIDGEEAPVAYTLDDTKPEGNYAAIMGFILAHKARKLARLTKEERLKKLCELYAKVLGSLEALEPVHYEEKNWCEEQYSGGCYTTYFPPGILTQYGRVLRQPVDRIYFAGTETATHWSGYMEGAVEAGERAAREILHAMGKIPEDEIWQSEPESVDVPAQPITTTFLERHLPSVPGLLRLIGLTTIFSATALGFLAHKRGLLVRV
Method: (§1) The Novaroli et al. method was used with minor modifications to study the biological activities of MAO-A and MAO-B in vitro. A preincubation step was carried out at 37 °C for 10 min, in which 140 μL of 0.1 M potassium phosphate-buffered solution at pH 7.4, 8 μL of 0.75 mM kynuramine, and 2 μL of a dimethyl sulfoxide (DMSO) solution (i.e., final DMSO and inhibitor concentrations of 1% (v/v) and 0–1 μM, respectively). Diluted human recombinant enzyme (50 μL) was added to achieve the final protein concentration, and the mixture was incubated at 37 °C. After 20 min, the reaction was stopped with the addition of 75 μL of 2 M NaOH. […] Each measurement was repeated three times. DMSO was used as control. IC50 values were then calculated. […] The determination of IC50 values for inhibition of MAO enzymes involved the use of recombinant human MAO-A and MAO-B enzymes (purchased from Sigma-Aldrich). The initial rates of oxidation were measured in a 1 mL cuvette containing 50 mM of sodium phosphate (pH 7.4) at 25 °C, as described previously, except for the substrate concentrations and assay times. […] Meanwhile, the assessment of MAO-B activity employed 0.6 mM of benzylamine as the substrate, with absorbance changes measured at 250 nm for 10 min. Substrate addition initiated the reaction, and the reaction rates were quantified as alterations in absorbance per minute.

hMAO-A = target: T2, hMAO-A (Homo sapiens, UniProt P21397); assay: In vitro MAO-A enzyme inhibitory activity (recombinant human enzyme, kynuramine substrate); format: biochemical
T2 construct: purchased Sigma-Aldrich
T2 sequence (P21397 1-527): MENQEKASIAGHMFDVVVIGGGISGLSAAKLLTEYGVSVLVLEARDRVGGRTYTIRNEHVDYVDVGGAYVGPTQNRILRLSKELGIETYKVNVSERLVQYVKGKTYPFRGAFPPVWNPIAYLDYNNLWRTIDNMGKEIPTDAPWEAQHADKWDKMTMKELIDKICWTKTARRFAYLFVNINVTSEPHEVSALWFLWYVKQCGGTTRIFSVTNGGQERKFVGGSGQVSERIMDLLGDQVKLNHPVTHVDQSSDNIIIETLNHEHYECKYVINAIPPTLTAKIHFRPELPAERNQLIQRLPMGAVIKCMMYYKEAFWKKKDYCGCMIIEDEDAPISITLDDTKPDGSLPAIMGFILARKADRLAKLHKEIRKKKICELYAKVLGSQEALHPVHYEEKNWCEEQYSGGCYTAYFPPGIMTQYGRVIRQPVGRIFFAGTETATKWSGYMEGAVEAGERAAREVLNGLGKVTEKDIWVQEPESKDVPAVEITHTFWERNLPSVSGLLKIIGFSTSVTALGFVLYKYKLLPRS
Method: as §1

[1] = recombinant human MAO-A, mean ± SD of 3 independent experiments in triplicate, read-out: IC50 hMAO-A

SMILES | IC50 (hMAO-B) | SI (hMAO-B) | IC50 (hMAO-A) [nM] | IC50 (hMAO-A; [1]) [nM]
C(#CC1(N2CCCCC2)CCCCC1)c1ccccc1 [4a, 1-(1-(phenylethynyl)cyclohexyl)piperidine] | 274.2 ± 2.68 nM | – | – | –
C(#CC1(N2CCCC2c2cccnc2)CCCCC1)c1ccccc1 (stereo not drawn) [4aa, 3-(1-(1-(Phenylethynyl)cyclohexyl)pyrrolidin-2-yl)pyridine] | 168 ± 2.12 nM | 4.70 | 791.3 ± 6.72 | –
CC(C)(O)C#CC1(N2CCN(c3ccccc3)CC2)CCCCC1 [4ab, 2-Methyl-4-(1-(4-phenylpiperazin-1-yl)cyclohexyl)but-3-yn-2-ol] | 167 ± 2.01 nM | 5.06 | – | 845.8 ± 6.83
C(#CC1(NCc2ccccc2)CCCCC1)c1ccccc1 [4ac, N-Benzyl-1-(phenylethynyl)cyclohexanamine] | 278.4 ± 2.71 nM | – | – | –
CC(C)(O)C#CC1(NCc2ccc(F)cc2)CCCCC1 [4ad, 4-(1-((4-Fluorobenzyl)amino)cyclohexyl)-2-methylbut-3-yn-2-ol] | 161 ± 1.97 nM | 4.74 | – | 765.6 ± 6.42
C(#CC1(NCc2ccccc2)CC2CCC1C2)c1ccccc1 (stereo not drawn) [4ae, N-Benzyl-2-(phenylethynyl)bicyclo[2.2.1]heptan-2-amine] | 321.6 ± 2.94 nM | – | – | –
C(#CC1(N2CCCC2)CCCC1)c1ccccc1 [4b, 1-(1-(phenylethynyl)cyclopentyl)pyrrolidine] | 182 ± 2.21 nM | – | – | –
C(#CC1(N2CCCC2)CCCCCC1)c1ccccc1 [4c, 1-(1-(phenylethynyl)cycloheptyl)pyrrolidine] | 183 ± 2.12 nM | – | – | –
C(#CC1(N2CCOCC2)CCCCC1)c1ccccc1 [4d, 4-(1-(Phenylethynyl)cyclohexyl)morpholine] | 174 ± 2.08 nM | – | – | –
CCCN(CCC)C1(C#Cc2ccccc2)CCCCC1 [4e, 1-(phenylethynyl)-N, N-dipropylcyclohexan-1-amine] | 286.1 ± 2.74 nM | – | – | –
Clc1ccc(C#CC2(N3CCCCC3)CCCCC2)cc1 [4f, 1-(1-((4-chlorophenyl)ethynyl)cyclohexyl)piperidine] | 175 ± 2.11 nM | – | – | –
Cc1ccc(C#CC2(N3CCCC3)CCCCC2)cc1 [4g, 1-(1-(p–tolylethynyl)cyclohexyl)pyrrolidine] | 189 ± 2.24 nM | – | – | –
Clc1ccc(C#CC2(N3CCCC3)CCCCC2)cc1 [4h, 1-(1-((4-chlorophenyl)ethynyl)cyclohexyl)pyrrolidine] | 172 ± 2.1 nM | – | – | –
COc1ccc(C#CC2(N3CCCCC3)CCCCC2)cc1 [4i, 1-(1-((4-methoxyphenyl)ethynyl)cyclohexyl)piperidine] | 172 ± 2.1 nM | – | – | –
C(#CC1(N2CCCC2c2cccnc2)CCCC1)c1ccccc1 (stereo not drawn) [4j, 3-(1-(1-(Phenylethynyl)cyclopentyl)pyrrolidin-2-yl)pyridine] | 165 ± 2.03 nM | 5.23 | – | 861.5 ± 6.97
CC(C)(O)C#CC1(N2CCCC2c2cccnc2)CCCCC1 (stereo not drawn) [4k, 2-methyl-4-(1-(2-(pyridin-3-yl)pyrrolidin-1-yl)cyclohexyl)but-3-yn-2-ol] | 152 ± 1.95 nM | 5.24 | – | 797.1 ± 6.73
C(#CC1(NC2CCCCC2)CCCCC1)c1ccccc1 [4l, N-cyclohexyl-1-(phenylethynyl)cyclohexan-1-amine] | 294 ± 3.06 nM | – | – | –
COc1ccc(CNC2(C#Cc3ccccc3)CCCCC2)cc1 [4m, N-(4-methoxybenzyl)-1-(phenylethynyl)cyclohexanamine] | 165 ± 2.01 nM | 4.86 | – | 802.9 ± 7.03
C(#CC1(N2CCCCC2)CCCC1)c1ccccc1 [4n, 1-(1-(phenylethynyl)cyclopentyl)piperidine] | 272.3 ± 2.54 nM | – | – | –
CCC(C)(C#Cc1ccccc1)N1CCCC1 (stereo not drawn) [4o, 1-(3-Methyl-1-phenylpent-1-yn-3-yl)pyrrolidine] | 312 ± 3.17 nM | – | – | –
CCCC(C)(C#Cc1ccccc1)N1CCCC1 (stereo not drawn) [4p, 1-(3-Methyl-1-phenylhex-1-yn-3-yl)pyrrolidine] | 203 ± 2.24 nM | – | – | –
CCC(C#Cc1ccccc1)(CC)N1CCCC1 [4q, 1-(3-Ethyl-1-phenylpent-1-yn-3-yl)pyrrolidine] | 317 ± 3.24 nM | – | – | –
CCCCCCC(C#Cc1ccccc1)(CCC)N1CCCC1 (stereo not drawn) [4r, 1-(4-(Phenylethynyl)decan-4-yl)pyrrolidine] | 323.4 ± 3.21 nM | – | – | –
CC1CCCCC1(C#Cc1ccccc1)N1CCCC1 (stereo not drawn) [4s, 1-(2-Methyl-1-(phenylethynyl)cyclohexyl)pyrrolidine] | 281.3 ± 2.75 nM | – | – | –
CC1CCCC(C#Cc2ccccc2)(N2CCCC2)C1 (stereo not drawn) [4t, 1-(3-Methyl-1-(phenylethynyl)cyclohexyl)pyrrolidine] | 192 ± 2.41 nM | – | – | –
C(#CC1(N2CCCCC2)CC2CCC1C2)c1ccccc1 (stereo not drawn) [4u, 1-(2-(Phenylethynyl)bicyclo[2.2.1]heptan-2-yl)piperidine] | 346 nM and 277 nM | – | – | –
Cc1cccc(C#CC2(N3CCCCC3)CCCCC2)c1 [4w, 1-(1-(m-Tolylethynyl)cyclohexyl)piperidine] | 281.9 ± 2.72 nM | – | – | –
COc1ccc(C#CC2(N3CCCCC3)CCCCC2)c(C)c1 [4x, 1-(1-((4-Methoxy-2-methylphenyl)ethynyl)cyclohexyl)piperidine] | 267.4 ± 2.52 nM | – | – | –
Brc1ccccc1C#CC1(N2CCCCC2)CCCCC1 [4y, 1-(1-((2-Bromophenyl)ethynyl)cyclohexyl)piperidine] | 277.4 ± 2.71 nM | – | – | –
CCOC(=O)C1CCN(C2(C#Cc3ccccc3)CCCCC2)CC1 [4z, Ethyl 1-(1-(phenylethynyl)cyclohexyl)piperidine-4-carboxylate] | 213 ± 2.24 nM | – | – | –
